Measurements: patent publication US11149034B2, “Derivatives of luciferin and methods for their synthesis” (UNIVERSITY OF CAPE TOWN, priority 2017, dated 2021)
Values joined by “and” are separate entries in the source; they are usually repeats but may differ in a detail not shown here. Equal values may be shown once. Read-outs that look alike come from different tables or passages of the source.

Columns and labels:
[1] = system: WT luciferase (Ppy Luc); experiment: Burst kinetics assays / rates of reduction in luminescence; type: biochemical, Photinus pyralis
Experimental: FIG. 9 is a burst kinetics profile of purified 10 nM luciferase treated with 100 μM D-thioluciferin.
[…] […] Data acquisition was performed with SIS for 2020n v1.9.0 software. Data are reported as Relative Light Units (RLU). To correct for the wavelength sensitivity of the PMT in the 20/20n, total flux was also measured using the IVIS-100 as described above with a final enzyme concentration of 10 nM and a final substrate concentration of 250 μM. […] The correction factor of each enzyme/substrate pair was calculated by dividing the normalized IVIS data by the normalised 20/20n data. All 20/20n data were then multiplied by their respective correction factors.

[2] = system: purified wild type (WT) luciferase (Photinus pyralis (luciferase) [Ppy Luc]); experiment: Purified protein luminescence assays (Michaelis-Menten kinetics, relative emission intensity); type: biochemical; conditions: for Vmax / Km: Michaelis-Menten fit; for Km: apparent Km, WT luciferase, read-out: Km (App.); for luminescence output when treated with luciferase: 0.1 μM solution, luciferase in enzyme buffer, 10 nM
Experimental: FIG. 10 is a relative luminescence emission intensity of the core luciferins (6-hydroxy, 6-amino, 6-thiol) at 0.1 μM substrate concentration and at a final luciferase concentration of 10 nM.
FIG. 11 illustrates luminescence output of 0.1 μM of protected D-thioluciferin sulfide, D-thioluciferin homodisulfide, and free D-thioluciferin at a final luciferase concentration of 10 nM (control readings were recorded for substrates in the absence of the luc enzyme). The RLU were determined in triplicate and are represented as the mean±SEM.
FIG. 13 is a Michaelis-Menten graph for D-Thioluciferin. […] The assays were performed in triplicate and are represented as the mean and each curve was fit to the Michaelis-Menten equation by nonlinear regression (GraphPad 5.0) to determine apparent Km and Vmax.
Luminescence assays were initiated by adding 30 μL of purified luciferase in enzyme buffer (20 mM Tris [pH 7.4], 0.1 mM EDTA, 1 mM TCEP, and 0.8 mg/mL BSA) to 30 μL 2× substrate in substrate buffer (20 mM Tris [pH 7.4], 0.1 mM EDTA, 8 mM MgSO4, and 4 mM ATP) in a black 96-well plate. Imaging was performed one minute after enzyme addition using a Xenogen® IVIS-100® at a final enzyme concentration of 10 nM and final substrate concentrations ranging from 0.122 to 250 μM. Data acquisition and analysis was performed with Living Image® software. Data are reported as total flux (p/s) for each ROI corresponding to each well of the 96-well plate.

[3] = system: purified firefly luciferase (luc) expressed from E. coli; experiment: Bioluminescence emission scans; type: biochemical, Photinus pyralis; conditions: for bioluminescence emission wavelength: FIG. 7, 10 nM luciferase with 100 μM substrate; for λmax: bioluminescence emission with luciferase
Experimental: FIG. 7 is a bioluminescence emission spectrum for 10 nM luciferase with 100 μM D-thioluciferin.
Purified luciferase in enzyme buffer was rapidly injected into a cuvette containing substrate in substrate buffer to a final enzyme concentration of 100 nM and a final substrate concentration of 10 μM. The emission from 400 to 800 nm was recorded in a fluorimeter with closed excitation slits 10 s after injection.

[4] = Fluorescence spectrophotometry (excitation emission spectra); type: physicochemical; conditions: for fluorescence emission intensity: excitation at 390 nm, FIG. 15
Experimental: The free D-thioluciferin has a greater intensity relative to the sulfide which is promising for further sensor development.
Excitation and emission spectra were recorded on a Varian Cary Eclipse fluorometer equipped with a regulated temperature cell holder and Hellma, Suprasil® quartz fluorescence cuvettes of 10 mm pathlength and 1.5 mL volume capacity. Emission spectra were recorded at an excitation wavelength corresponding to previously recorded absorption maxima. Samples were prepared as a 0.1 mM DMSO solution, unless otherwise stated, and were scanned from 200 nm to 800 nm (Ex. Slit/Em. Slit 5 nm) at a scan rate of 600.00 nm/mn. Data were analysed using Scan Software Version 1.1.

[5] = system: purified wild type (WT) luciferase (Photinus pyralis (luciferase) [Ppy Luc]); conditions: cited from earlier work
[6] = literature value; cited from earlier work
[7] = system: purified firefly luciferase (luc) expressed from E. coli; conditions: cited from earlier work; for λmax (lit.): literature value
[8] = system: purified firefly luciferase (10 nM) expressed from E. coli; experiment: Inhibition of firefly luciferase by D-thioluciferin sulfide (thioacrylate); type: biochemical, Photinus pyralis; conditions: D-thioluciferin 10 μM, increasing sulfide
Experimental: FIG. 14 is a bar graph showing potential inhibitory effects of firefly luciferase by D-thioluciferin sulfide (thioacrylate). D-thioluciferin (10 μM) was treated with purified firefly luciferase (10 nM) expressed from E. coli and the luminescence recorded in the absence and presence of the sulifide.

[9] = measured for 15 seconds post-specified time
[10] = FIG. 10, 0.1 μM substrate, 10 nM luciferase

SMILES: O=C(O)[C@H]1CSC(c2nc3ccc(S)cc3s2)=N1 [D-thioluciferin, (S)-2-(6-mercaptobenzo[d]thiazol-2-yl)-4,5-dihydrothiazole-4-carboxylic acid]
- period over which light of constant intensity is sustained [1]: 20 min
- burst kinetics profile ([1]; FIG. 9, 10 nM luciferase, 100 μM substrate): robust initial burst of light followed by sustained light output of much lower intensity
- Rate 1 min post-peak emission (rate of reduction in luminescence) [1, 9]: 4.929 ± 0.1584 RLU/s
- Rate 5 min post-addition (rate of reduction in luminescence) [1, 9]: 0.0067 RLU/s
- Rate 20 minutes post addition (rate of reduction in luminescence) [1, 9]: 0.0022 RLU/s
- emission, fold greater over the background [2]: > 100 fold
- emission signal, fold less intense compared to D-luciferin [2, 10]: 100 fold
- luminescence output, fold greater than protected thioacrylate (sulfide) ([2]; FIG. 11, 0.1 μM, 10 nM luciferase): 90 fold
- Vmax ([2]; 10 nM luciferase): 0.7597 ± 0.1071 RLU/s and 0.6661 ± 0.1522 RLU/s
- Km ([2]; listed as D-Thioluciferin): 0.098 ± 0.0147 µM
- Km [2]: 0.117 µM and 0.1 µM
- bioluminescence emission wavelength [3]: 599 nm and 600 nm
- λmax [3]: 599 nm
- fluorescence emission intensity [4]: strong fluorescence emission
- Fluorescence ([4]; fluorescence emission): 500 nm

SMILES: O=C(O)C1CSC(c2nc3ccc(SSc4ccc5nc(C6=NC(C(=O)O)CS6)sc5c4)cc3s2)=N1 [D-thioluciferin disulfide]
- luminescence output when treated with luciferase [2]: much higher luminescence output than its corresponding control
- ability to produce bioluminescence (luciferase substrate) ([2]; FIG. 11): neither of which appeared to be bioluminescent substrates

SMILES: Nc1ccc2nc(C3=N[C@@H](C(=O)O)CS3)sc2c1 [D-aminoluciferin, (S)-2-(6-aminobenzo[d]thiazol-2-yl)-4,5-dihydrothiazole-4-carboxylic acid]
- time post-addition of rapid decrease in luminescent activity [1]: 1 min
- Rate 5 min post-addition (rate of reduction in luminescence) [1, 9]: 1.216 ± 0.1305 RLU/s
- Rate 20 minutes post addition (rate of reduction in luminescence) [1, 9]: 0.1510 ± 0.007506 RLU/s
- Vmax (lit.) ([5]; literature value): 169 ± 2.6 photons/min
- Km ([5]; literature value, read-out: Km (lit)): 0.62 ± 0.05 µM
- Km ([5]; previously calculated, comparison, read-out: Km previously calculated): 0.39 to 0.69 µM
- emission signal, fold less intense compared to D-luciferin [2, 10]: 100 fold
- Vmax ([2]; 10 nM luciferase): 13 ± 2.2 RLU/s
- Km [2]: 0.39 ± 0.08 µM
- Fluorescence (lit.) [6]: 517 nm
- bioluminescence emission wavelength [3]: 593 nm
- λmax [3]: 597 nm
- λmax (lit.) [7]: 594 nm

SMILES: O=C(O)[C@H]1CSC(c2nc3ccc(O)cc3s2)=N1 [D-luciferin, (S)-2-(6-hydroxybenzo[d]thiazol-2-yl)-4,5-dihydrothiazole-4-carboxylate]
- time post-addition of rapid decrease in luminescent activity [1]: 10 min
- Rate 5 min post-addition (rate of reduction in luminescence) [1, 9]: 9.300 ± 0.9815 RLU/s
- Rate 20 minutes post addition (rate of reduction in luminescence) [1, 9]: 0.3400 ± 0.05773 RLU/s
- relative luminescence emission intensity, fold greater than both D-aminoluciferin and D-thioluciferin [2, 10]: 100 fold
- Vmax ([2]; 10 nM luciferase): 57 ± 13 RLU/s
- Km [2]: 8.3 µM and 8 µM
- Fluorescence (lit.) [6]: 528 nm
- bioluminescence emission wavelength [3]: 547 nm
- bioluminescence emission wavelength ([3]; listed as D-Luciferin): 557 nm
- λmax [3]: 553 nm
- relative emission λmax ([7]; background statement): 594 nm
- λmax (lit.) [7]: 551 nm

SMILES: O=C(/C=C/Sc1ccc2nc(C3=N[C@@H](C(=O)O)CS3)sc2c1)OCc1ccccc1 [D-thioluciferin thioacrylate, (S,E)-2-(6-((3-(benzyloxy)-3-oxoprop-1-en-1-yl)thio)benzo[d]thiazol-2-yl)-4,5-dihydrothiazole-4-carboxylic acid]
- inhibition of luciferase ([8]; FIG. 14): strongly inhibitory
- inhibition of luciferase ([8]; FIG. 14, listed as D-thioluciferin sulfide (thioacrylate)): decrease in emission intensity with increasing concentration of the sulfide
- luminescence output when treated with luciferase [2]: negligible
- ability to produce bioluminescence (luciferase substrate) ([2]; FIG. 11): neither of which appeared to be bioluminescent substrates
- fluorescence emission intensity [4]: only weakly fluorescent
